For 24 molecules, IC50 results are on record in patent publication US7427612B2, “Benzoyl-piperazine derivatives” (Hoffmann-La Roche Inc., priority 2003, dated 2008).

This assay has as its target T1, mGlyT-1b (Mus musculus, UniProt P28571).
T1 construct: host or cells: Flp-in CHO cells, stably transfected
T1 sequence (P28571 1-651 isoform P28571-2): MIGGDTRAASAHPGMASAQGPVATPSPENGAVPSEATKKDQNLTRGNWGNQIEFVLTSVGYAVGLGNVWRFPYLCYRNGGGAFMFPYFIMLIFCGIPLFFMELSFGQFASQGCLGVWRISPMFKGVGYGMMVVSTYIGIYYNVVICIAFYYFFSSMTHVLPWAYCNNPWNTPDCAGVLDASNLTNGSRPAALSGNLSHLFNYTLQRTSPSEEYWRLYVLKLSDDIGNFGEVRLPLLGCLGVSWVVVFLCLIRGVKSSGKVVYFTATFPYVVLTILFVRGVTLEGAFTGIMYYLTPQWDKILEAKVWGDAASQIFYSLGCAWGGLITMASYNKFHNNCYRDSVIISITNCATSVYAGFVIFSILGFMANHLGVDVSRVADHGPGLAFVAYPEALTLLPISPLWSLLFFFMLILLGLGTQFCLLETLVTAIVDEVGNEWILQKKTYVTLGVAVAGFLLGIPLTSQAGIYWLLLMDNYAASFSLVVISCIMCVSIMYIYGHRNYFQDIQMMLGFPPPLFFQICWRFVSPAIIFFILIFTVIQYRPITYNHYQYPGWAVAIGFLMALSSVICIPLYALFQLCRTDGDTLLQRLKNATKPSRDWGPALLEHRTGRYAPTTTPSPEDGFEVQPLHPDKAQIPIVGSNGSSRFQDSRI
Put plainly: Glycine uptake inhibition assay (mGlyT-1b). The format is cell-based. The note with it: inhibition of [3H]-glycine uptake in Flp-in-CHO cells stably transfected with mGlyT1b cDNA; 20 min at 22° C. The protocol:
DMEM complete medium: Nutrient mixture F-12 (Gibco Life-technologies), fetal bovine serum (FBS) 5%, (Gibco life technologies), Penicillin/Streptomycin 1% (Gibco life technologies), Hygromycin 0.6 mg/ml (Gibco life technologies), Glutamine 1 mM Gibco life technologies)
Uptake buffer (UB): 150 mM NaCl, 10 mM Hepes-Tris, pH 7.4, 1 mM CaCl2, 2.5 mM KCl, 2.5 mM MgSO4, 10 mM (+) D-glucose. Flp-in™—CHO (Invitrogen Cat n° R758-07)cells stably transfected with mGlyT1b cDNA.
Glycine uptake inhibition assay (mGlyT-1b)
On Day 1 mammallian cells, (Flp-in™—CHO), transfected with mGlyT-1b cDNA, were plated at the density of 40,000 cells/well in complete F-12 medium, without hygromycin in 96-well culture plates. On day 2, the medium was aspirated and the cells were washed twice with uptake buffer (UB). The cells were then incubated for 20 min at 22° C. with either (i) no potential competitor, (ii) 10 mM non-radioactive glycine, (iii) a concentration of a potential inhibitor. A range of concentrations of the potential inhibitor was used to generate data for calculating the concentration of inhibitor resulting in 50% of the effect (e.g. IC50, the concentration of the competitor inhibiting glycine uptake of 50%). A solution was then immediately added containing [^3H]-glycine 60 nM (11-16 Ci/mmol) and 25 μM non-radioactive glycine. The plates were incubated with gentle shaking and the reaction was stopped by aspiration of the mixture and washing (three times) with ice-cold UB. The cells were lysed with scintillation liquid, shaken 3 hours and the radioactivity in the cells was counted using a scintillation counter.
As to `CNS(=O)(=O)c1ccc(N2CCCC2)c(C(=O)N2CCN(c3ccc(C(F)(F)F)c(F)c3)CC2)c1` [Example 236, 3-[4-(3-Fluoro-4-trifluoromethyl-phenyl)-piperazine-1-carbonyl]-N-methyl-4-pyrrolidin-1-yl-benzenesulfonamide], inhibition was half-maximal at 4 nM (IC50). `CC(=O)c1ccc(N2CCN(C(=O)c3cc([N+](=O)[O-])ccc3N3CCCC3)CC2)c(F)c1` [Example 16, 1-{3-Fluoro-4-[4-(5-nitro-2-pyrrolidin-1-yl-benzoyl)-piperazin-1-yl]-phenyl}-ethanone]: the IC50 (usually the midpoint of a concentration-inhibition curve) was 12 nM.

Molecule `CNS(=O)(=O)c1ccc(N2CCCCC2)c(C(=O)N2CCN(c3ccc(C(F)(F)F)cc3F)CC2)c1` [Example 250, 3-[4-(2-Fluoro-4-trifluoromethyl-phenyl)-piperazine-1-carbonyl]-N-methyl-4-piperidin-1-yl-benzenesulfonamide] displayed an IC50 of 15 nM.

`CNS(=O)(=O)c1ccc(N2CCCC2)c(C(=O)N2CCN(c3ccc(C(F)(F)F)cc3)CC2)c1` [Example 129, N-Methyl-4-pyrrolidin-1-yl-3-[4-(4-trifluoromethyl-phenyl)-piperazine-1-carbonyl]-benzenesulfonamide] showed an IC50 of 5 nM. For `CNS(=O)(=O)c1ccc(N2CCOCC2)c(C(=O)N2CCN(c3ccc(C(F)(F)F)c(F)c3)CC2)c1` [Example 264, 3-[4-(3-Fluoro-4-trifluoro-methyl-phenyl)-piperazine-1-carbonyl]-N-methyl-4-morpholin-4-yl-benzenesulfonamide] the value was 12 nM; for `CC(=O)c1ccc(N2CCN(C(=O)c3cc([N+](=O)[O-])ccc3N3CCCCC3)CC2)c(F)c1` [Example 27, 1-{3-Fluoro-4-[4-(5-nitro-2-piperidin-1-yl-benzoyl)-piperazin-1-yl]-phenyl}-ethanone], 1.2 nM; for `CC(=O)c1ccc(N2CCN(C(=O)c3cc([N+](=O)[O-])ccc3N3CCCC(C)C3)CC2)c(F)c1` (stereo not drawn) [Example 37, 1-(3-Fluoro-4-{4-[2-(3-methyl-piperidin-1-yl)-5-nitro-benzoyl]-piperazin-1-yl}-phenyl)-ethanone], 7 nM. For `CNS(=O)(=O)c1ccc(N2CCCC2)c(C(=O)N2CCN(c3ccc(C(C)=O)cc3F)CC2)c1` [Example 133, 3-[4-(4-Acetyl-2-fluoro-phenyl)-piperazine-1-carbonyl]-N-methyl-4-pyrrolidin-1-yl-benzenesulfonamide] the value was 9 nM; for `CNS(=O)(=O)c1ccc(N2CCCCC2)c(C(=O)N2CCN(c3ccc(C(C)=O)cc3F)CC2)c1` [Example 245, 3-[4-(4-Acetyl-2-fluoro-phenyl)-piperazine-1-carbonyl]-N-methyl-4-piperidin-1-yl-benzene-sulfonamide], 18 nM. Regarding `CC(=O)c1ccc(N2CCN(C(=O)c3cc(S(C)(=O)=O)ccc3N3CCCCCC3)CC2)c(F)c1` [Example 76, 1-{4-[4-(2-Azepan-1-yl-5-methanesulfonyl-benzoyl)-piperazin-1-yl]-3-fluoro-phenyl}-ethanone], the IC50 is 19 nM.

On to `CS(=O)(=O)c1ccc(N2CCCCC2)c(C(=O)N2CCN(c3ccc(C(F)(F)F)c(F)c3)CC2)c1` [Example 220, [4-(3-Fluoro-4-trifluoromethyl-phenyl)piperazin-1-yl]-(5-methanesulfonyl-2-piperidin-1-yl-phenyl)-methanone], for which the midpoint of inhibition, the IC50, lay at 19 nM.

`CS(=O)(=O)c1ccc(N2CCCCC2)c(C(=O)N2CCN(c3ccc(C#N)c(F)c3)CC2)c1` [Example 217, 2-Fluoro-4-[4-(5-methanesulfonyl-2-piperidin-1-yl-benzoyl)-piperazin-1-yl]-benzonitrile] returned an IC50 of 16 nM. For `CNS(=O)(=O)c1ccc(N2CCCCC2)c(C(=O)N2CCN(c3ccc(C#N)cc3)CC2)c1` [Example 246, 3-[4-(4-Cyano-phenyl)-piperazine-1-carbonyl]-N-methyl-4-piperidin-1-yl-benzenesulfonamide], the half-maximal inhibitory concentration (IC50) amounted to 11 nM. The same measure for `CNS(=O)(=O)c1ccc(N2CCCC2)c(C(=O)N2CCN(c3ccc(C(F)(F)F)cc3F)CC2)c1` [Example 235, 3-[4-(2-Fluoro-4-trifluoro-methyl-phenyl)-piperazine-1-carbonyl]-N-methyl-4-pyrrolidin-1-yl-benzenesulfonamide]: 6.5 nM; for `CS(=O)(=O)c1ccc(N2CCCCC2)c(C(=O)N2CCN(c3ccc(C#N)cc3F)CC2)c1` [Example 216, 3-Fluoro-4-[4-(5-methanesulfonyl-2-piperidin-1-yl-benzoyl)-piperazin-1-yl]-benzonitrile]: 12 nM. Consider `CNS(=O)(=O)c1ccc(N2CCCCC2)c(C(=O)N2CCN(c3ccc(C(F)(F)F)c(F)c3)CC2)c1` [Example 251, 3-[4-(3-Fluoro-4-trifluoro-methyl-phenyl)-piperazine-1-carbonyl]-N-methyl-4-piperidin-1-yl-benzenesulfonamide], for which it took 19 nM to reach half-maximal inhibition (IC50).

Molecule `CNS(=O)(=O)c1ccc(N2CCCC2)c(C(=O)N2CCN(c3ccc(C#N)cc3F)CC2)c1` [Example 234, 3-[4-(4-Cyano-2-fluoro-phenyl)-piperazine-1-carbonyl]-N-methyl-4-pyrrolidin-1-yl-benzenesulfonamide] returned an IC50 of 10 nM. The same measure for `CC(=O)c1ccc(N2CCN(C(=O)c3cc([N+](=O)[O-])ccc3N3CCC(CO)C3)CC2)c(F)c1` (racemic) [Example 175, 1-(3-Fluoro-4-{4-[2-(3-hydroxymethyl-pyrrolidin-1-yl)-5-nitro-benzoyl]-piperazin-1-yl}-phenyl)-ethanone]: 9.7 nM; for `CNS(=O)(=O)c1ccc(N2CCCCC2)c(C(=O)N2CCN(c3ccc(C#N)c(F)c3)CC2)c1` [Example 248, 3-[4-(4-Cyano-3-fluoro-phenyl)-piperazine-1-carbonyl]-N-methyl-4-piperidin-1-yl-benzenesulfonamide]: 10 nM.

In turn, `CC(=O)c1ccc(N2CCN(C(=O)c3cc([N+](=O)[O-])ccc3NCC(C)C)CC2)c(F)c1` [Example 19, 1-{3-Fluoro-4-[4-(2-isobutylamino-5-nitro-benzoyl)-piperazin-1-yl]-phenyl}-ethanone] gave an IC50 of 3 nM. `CC(=O)c1ccc(N2CCN(C(=O)c3cc([N+](=O)[O-])ccc3N3CC=CC3)CC2)c(F)c1` [Example 41, 1-(4-{4-[2-(2,5-Dihydro-pyrrol-1-yl)-5-nitro-benzoyl]-piperazin-1-yl}-3-fluoro-phenyl)-ethanone] came in with an IC50 of 14 nM.

The molecule `CNS(=O)(=O)c1ccc(N2CCOCC2)c(C(=O)N2CCN(c3ccc(C(F)(F)F)cc3)CC2)c1` [Example 131, N-Methyl-4-morpholin-4-yl-3-[4-(4-trifluoromethyl-phenyl)-piperazine-1-carbonyl]-benzenesulfonamide] had a half-maximal inhibitory concentration (IC50) of 8 nM.

In the case of `CC(=O)c1ccc(N2CCN(C(=O)c3cc([N+](=O)[O-])ccc3NC3CCCCC3)CC2)c(F)c1` [Example 6, 1-{4-[4-(2-Cyclohexylamino-5-nitro-benzoyl)-piperazin-1-yl]-3-fluoro-phenyl}-ethanone], the midpoint of inhibition, the IC50, lay at 10 nM. For `CC(=O)c1ccc(N2CCN(C(=O)c3cc([N+](=O)[O-])ccc3NCC3CC3)CC2)c(F)c1` [Example 4, 1-(4-{4-[2-(Cyclopropylmethyl-amino)-5-nitro-benzoyl]-piperazin-1-yl}-3-fluoro-phenyl)-ethanone] the value was 13 nM.
